# Source: PubChem BioAssay AID1996
# Conditions: buffer; pH 7.4; 200.0 µM
row,Structure (SMILES),solubility kinetic [µg/mL]
1,C=Cn1c(C(=O)O)ccc1-c1ccc(OC)cc1,> 36.5
2,c1ccc(NC(c2ccccc2)c2ccncc2)cc1 (stereo not given),25.5
3,COc1ccc(CCC(C)NCc2ccc(F)cc2)cc1 (stereo not given),31.8
4,Cc1ccnc(SC2CC(=O)N(c3ccc(C(C)C)cc3)C2=O)n1 (stereo not given),> 51.2
5,Cc1noc(C)c1COC(=O)[C@@H](NC(=O)c1ccccc1)C(C)C,> 49.6
6,Nc1nonc1OCCCCOc1nonc1N,21.1
7,COc1ccc2nc(NC(=O)Nc3ccccc3)sc2c1,< 0.2
8,Cc1cccc(C2NC(c3cccc(C)c3)C(C)C(=O)C2C)c1 (stereo not given),0.8
9,Cc1ccc(N2C(=O)C(Cl)=C(N3CCOCC3)C2=O)c(C)c1,36.3
10,Cc1ccccc1-c1nc(-c2ccc(Br)o2)no1,1
11,Cc1cc(=O)oc2cc(OCC(=O)N3CCOCC3)c(Cl)cc12,> 50.7
12,CS(=O)(=O)N(CC(=O)NC1CCCCC1)c1cccc(F)c1,48.1
13,Oc1ccc(-c2csc(Nc3ccccn3)n2)c(O)c1,4.4
14,CC(=O)N(C)c1ccc(NS(=O)(=O)c2cccc3nsnc23)cc1,> 54.4
15,Cc1ccc(OCCN2C(=O)C(=O)c3cc(C)ccc32)cc1,4.1
16,O=C(Nc1cccc(N2C(=O)C=CC2=O)c1)c1cccs1,> 44.7
17,CC(OC(=O)c1ccc2noc(-c3ccccc3)c2c1)C(N)=O (stereo not given),46.3
18,Cc1ccc(C)c(OCC(=O)Nc2ccccc2C(=O)NC2CC2)c1,0.9
19,CCSc1nnc(SCC(=O)NC2CCCCC2)s1,> 47.6
20,Cn1cccc1C(=O)C(=O)Nc1ccccc1C(F)(F)F,5

row,Structure (SMILES),solubility kinetic [µg/mL]
1,Cc1cccc(NC(=O)COC(=O)CC2CCCC2)c1C,> 43.4
2,O=C(O)CCC(CNS(=O)(=O)c1ccccc1)C(F)(F)F (stereo not given),> 48.8
3,Cc1ccc(S(=O)(=O)/N=C(/c2ccccc2)N(C)C)c(C)c1,> 47.5
4,CC(=O)N1CCN(c2nnc(-c3ccccc3)c3ccccc23)CC1,> 49.9
5,Cc1nn(CC(=O)OCC(=O)NCCc2ccc(F)cc2)c(C)c1[N+](=O)[O-],> 56.8
6,COc1ccc(OCC(O)CNS(=O)(=O)c2ccc(C)cc2)cc1 (stereo not given),> 52.7
7,C=CCNC(=S)/N=c1/ccccn1CC,28.7
8,Nc1ccc(SC(F)(F)F)cc1,6
9,Cc1ccc(NC(=O)Cn2cc([N+](=O)[O-])nc2C)cc1C,14.8
10,CC(C)N1CC(C(=O)Nc2ccc(Cl)c(Cl)c2)CC1=O (stereo not given),> 47.3
11,OCCC1CN(Cc2ccsc2)CCN1C1CCCC1 (stereo not given),> 44.2
12,Cc1nc(NC(=S)NC(=O)c2ccco2)sc1C(=O)N(C)C,> 50.8
13,COc1cccc(/C=C/C(=O)NCc2ccc3c(c2)OCO3)c1,11.4
14,O=C(C[n+]1ccc(/C=N/O)cc1)N1CCCCC1.[Cl-],> 42.6
15,Cc1cc(NS(=O)(=O)c2ccc(NC(=O)C3CCCCC3)cc2)no1,44.1
16,COc1ccc(Oc2ccccc2C#N)cc1,9.9
17,CCc1ccc(NC(=O)CN2CC(c3ccccc3)CC2=O)cc1 (stereo not given),> 48.4
18,Cc1ccc(Sc2ccc(S(=O)(=O)Nc3ccc(C(=O)O)cc3)cc2)cc1C,> 62
19,CCOc1ncccc1C(=O)NCCc1ccc(Cl)cc1,33.7
20,N#C/C(=C\c1cccc(O)c1)C(=O)Nc1ccc2c(c1)OCCO2,2

row,Structure (SMILES),solubility kinetic [µg/mL]
1,N#CCSc1nc2ccccc2c(=O)n1CC1CCCC1,0.8
2,Clc1ncc(CSc2ccccc2)s1,2.3
3,CN(C(=O)COC(=O)c1cc2ccccc2cc1O)c1ccccc1,3.4
4,N#CCn1c(CN2CCCC2)nc2ccccc2c1=O,38.6
5,CC(NC(=O)/C(C#N)=C/c1ccc(C(=O)O)cc1)c1ccccc1 (stereo not given),> 48.1
6,COc1ccc(-n2c(O)c(C=NCCN(C)C)c(=O)[nH]c2=O)cc1,> 49.9
7,Cc1ccc2c(CN3CCOCC3)cc(=O)oc2c1,> 38.9
8,COC(=O)/C=C1\NCCNC1=O,> 25.5
9,CCC(=O)N1CCc2nc(-c3ccccc3)sc2C1,> 40.9
10,Nc1cccc2c(=O)c3ccccc3[nH]c12,5.6
11,C=CCCC(=O)N1CCCC(Cc2cccc(Cl)c2)(C(=O)OCC)C1 (stereo not given),> 54.6
12,Cc1ccc(S(=O)(=O)N2CCCN(C)CC2)cc1.Cl,> 45.7
13,CN(CC(=O)NCc1ccncc1)S(=O)(=O)c1ccc(Cl)cc1,> 53.1
14,CC(=O)Nc1ccc(S(=O)(=O)NCC(=O)OCC(=O)N2CC(C)OC(C)C2)cc1 (stereo not given),> 64.1
15,COc1cc(CN2CCN(Cc3cccc(OC)c3OC)CC2)cc(OC)c1,47.8
16,CCN(/C=N/S(=O)(=O)c1ccc(Cl)cc1)CC,> 41.2
17,COc1cccc(C(=O)NOCc2ccccc2)c1OC,> 43.1
18,Cc1cccc(S(=O)(=O)c2c(C)cc(C)[nH]c2=O)c1,> 41.6
19,O=C(NCCN1CCCCC1)Nc1cccc(F)c1,> 39.8
20,CCN(CC)S(=O)(=O)c1c(OC)cc(C)c(Cl)c1C,18.3
